# Assay results reported in a melting point compilation (Tetko et al.; mined from patent text by program, amines drawn as free bases though some values may be those of a salt).
row,melting point,Compound
1,165 to 167 °C,O=C(O)Cc1ccc(-n2cc(F)cn2)cc1
2,94 to 96 °C,Cc1cn2cc(Cl)ccc2n1
3,84 to 86 °C,CC(C)C[C@H](NC(=O)OC(c1ccccc1)c1ccccc1)C(=O)Oc1c(Cl)c(Cl)c(Cl)c(Cl)c1Cl
4,195 to 198 °C,OCC1CCCN1c1cc(N2CCOCC2)nc(-n2c(C(F)F)nc3c(O)cccc32)n1 (stereo unspecified)
5,139 °C,CCON=C(CC)C1=C(OC(=O)c2ccccc2)CC(c2c(OC)cc(OC)cc2OC)CC1=O (stereo unspecified)
6,37 to 39 °C,CCOC(=O)c1c(C(F)F)nc(C(F)(F)F)c(C(=O)OC)c1NC(C)C
7,189 to 190 °C,O=c1c(CCCCCc2ccncc2)cc2cccnc2n1-c1cccc([N+](=O)[O-])c1
8,244 to 247 °C,O=S1(=O)N=CN(C2CC2)c2c1ccc(Br)c2F
9,113 to 114 °C,COc1ccccc1N1CCN(CC(O)COc2ccccc2CN)CC1 (stereo unspecified)
10,155 to 156 °C,O=C1c2ccccc2C(=O)N1CCc1cc(-c2ccc(F)cc2)no1
11,188 to 190 °C,NN1CCN(C2c3ccccc3C=C(Br)c3ccccc32)CC1 (stereo unspecified)
12,63 to 65 °C,CC(C)(C)[Si](C)(C)OCc1ccc(C(=NO)C(F)(F)F)cc1
13,167 to 170 °C,Fc1nc(/C=C/c2ccccc2)cn1C(c1ccccc1)(c1ccccc1)c1ccccc1
14,192 to 194 °C,CCOC(=O)Cn1c(-c2ccc([N+](=O)[O-])cc2)nc2cccnc21
15,270 to 272 °C,CC(=O)Nc1cccc2c(=O)[nH]c3ccccc3c(=O)c12
16,235 to 241 °C,Nc1cc2c(cc1Br)C(=O)OC2
17,172 to 174 °C,CC(=O)SCC(Cc1ccc(F)cc1)C(=O)Nc1cccc(C(=O)O)c1 (stereo unspecified)
18,187 to 189 °C,CN1CCC(n2ccc(-c3ccc(F)cc3)c2-c2ccncc2)CC1
19,215 °C,O=C(Nc1cnccn1)Nc1cccc2c1C1CCCCN1C2=O (stereo unspecified)
20,305 to 306 °C,CCc1c(C(=O)c2cc(C)cc(C=CC#N)c2)[nH]c(=O)[nH]c1=O
21,57 to 59 °C,C[Si](C)(C)C#Cc1ccc(I)cc1
22,146 to 149 °C,O=C(NCCN1CCOCC1)c1ccc(-c2ccc3nnn(Cc4ccc5ncccc5c4)c3n2)cc1
23,101 °C,CCOC(=O)c1oc2ccc(CSC)c(O)c2c1C
24,115 to 116 °C,Cc1oc(-c2ccccc2)nc1COc1ccc(C(=O)c2ccccc2)c(O)c1

row,melting point,Compound
1,57 to 60 °C,O=[N+]([O-])c1ccc(CCCCCCCCCCCCCCOCCCCCCCCCCCCCCc2ccc([N+](=O)[O-])cc2)cc1
2,271 °C,Cc1nc2cc(C(c3cccc(Cl)c3)n3ccnc3)ccc2[nH]c1=O (stereo unspecified)
3,193 to 194 °C,O=C(N1CCOCC1)N1Cc2c(-c3nc(C4CC4)cs3)ncn2-c2ccccc21
4,52 to 55 °C,CCCCCCCC1=CC(=O)N(Cc2ccccc2)C1=CBr
5,193 °C,COc1ccccc1Sc1c(NS(=O)(=O)c2ccc(C(C)(C)C)cc2)ncnc1OCCOC(=O)Nc1ccccn1
6,109 to 112 °C,CCCCc1ncc(CNC(C)(Cc2cccs2)C(=O)O)n1Cc1ccccc1Cl (stereo unspecified)
7,78 °C,Cc1cc2cccc(Br)c2nc1C
8,106 °C,CC(=O)N1C(=O)OC[C@@H]1Cc1ccccc1
9,229 to 231 °C,CC1Sc2c(C(=O)O)c(=O)c3cc(F)c(N4CCSCC4)cc3n21 (stereo unspecified)
10,99 to 110 °C,COC(=O)c1cccn2c(I)cnc12
11,160 to 163 °C,O=S1N=C(NCCCN(Cc2ccc(F)cc2)c2ccccn2)C(NCc2ccncc2)=N1 (stereo unspecified)
12,70 °C,CC#CC1CCC(C2CCC(c3ccc(CCC)cc3)CC2)CC1 (stereo unspecified)
13,231 to 232 °C,O=C(O)c1cn(Cc2cnsn2)c2nc(Cl)c(F)cc2c1=O
14,135 to 136 °C,CC(C)(CCCc1cccnc1)NC(=O)C=CC=C(c1cccc(F)c1)c1cccc(F)c1
15,110 to 114 °C,C[Si](C)(C)c1cc(Cl)sc1C(=O)NCCO
16,67 to 68 °C,CCOC(=O)c1ccc(Cc2ccc3c(c2)OCO3)o1
17,252 to 254 °C,NNC(=O)c1ncnc2[nH]ccc12
18,157 to 161 °C,CCS(=O)(=O)C1=C(C(=O)c2ccc(S(C)(=O)=O)cc2Cl)C(=O)CCC1
19,200 to 204 °C,CCCCCCCC(=O)Nc1ccc(O)c(C(=O)O)c1
20,> 300 °C,[N-]=[N+]=NCc1cc(C(N)C(=O)O)ccc1O (stereo unspecified)
21,> 300 °C,Cc1ccc2c(=O)n3nc(C)cc3[nH]c2n1
22,104 to 106 °C,OC(c1ccc(F)cc1)C1(n2cncn2)CC1 (stereo unspecified)
23,93 to 95 °C,CSc1cc(-c2ccccc2)ccc1C1=NC(C)(C)CO1
24,99 to 100 °C,COC(=O)C(CCBr)Oc1cc([N+](=O)[O-])cc2c1CCCC2 (stereo unspecified)

row,melting point,Compound
1,210 to 211 °C,O=c1ccc(S(=O)(=O)c2cc3ccccc3o2)n[nH]1
2,112 to 115 °C,COC(=O)C(O)C(Sc1cc(Oc2cccc(C)c2)ccc1N)c1ccc(OC)cc1 (stereo unspecified)
3,149 to 150 °C,Clc1ccc(Cn2cnc3ccc(Cl)nc32)c(Cl)c1
4,248 to 249 °C,NS(=O)(=O)c1cc(C(=O)O)cc(NCc2ccccc2)c1Nc1ccccc1
5,250 to 251 °C,O=C(NNC(=O)c1cccc([N+](=O)[O-])c1)c1ccc([N+](=O)[O-])cc1
6,244 to 246 °C,CC(C)(C)c1cc(-c2c(NC(=O)Nc3ccc(F)cc3F)c(=O)oc3ccc(Cl)cc23)cc(C(C)(C)C)c1O
7,135 to 138 °C,O=C(O)[C@@H]1CCC(=O)N1C(=O)CCC1CCCC1
8,175 to 178 °C,CCCN(CCC)c1ccccc1C(C)C(C(N)=O)c1ccc(C(=O)O)cc1 (stereo unspecified)
9,96 to 99 °C,Cc1cc(N(C)C)nc2ccc(C=O)cc12
10,205 to 207 °C,N#Cc1cc2c(cc1F)S(=O)(=O)N=CN2C1CC1
11,147 to 149 °C,CCc1nn(C2CCCC2)c2cc(C(=O)NCc3ccncc3)ccc12
12,128 to 130 °C,CC1=CC(c2cccc(Cl)c2)C=C(CN2C(=O)c3ccccc3C2=O)N1 (stereo unspecified)
13,98 to 99 °C,COC(=S)c1cnccc1Cc1ccccc1
14,165 to 166 °C,N#CC1=C(COCc2ccccc2)Nc2n[nH]cc2C1c1ccccc1Cl (stereo unspecified)
15,190 to 193 °C,Cc1nc(-c2cc(Cl)ccc2Cl)n2c1nnc1ccc(-c3cc(Cl)ccc3Cl)cc12
16,> 200 °C,CN(C)Cc1ccc(-c2csc(NC(=N)N)n2)o1
17,185 to 189 °C,COc1cc(Nc2nc3cccc(-c4ccn[nH]4)c3o2)cc(OC)c1OC
18,174 °C,Cc1cc(Br)nc2c1OCC(=O)N2
19,228 to 229 °C,CCOC(=O)CCNC(=O)c1n[nH]cc1NC(=O)c1cccc(C)n1
20,200 to 202 °C,O=C1NCCN1C(c1ccccc1)c1ccccc1
21,103 to 107 °C,CC(C)(C)OC(=O)N1CCC2(CC1)c1ccccc1CS2=O (stereo unspecified)
22,182 to 184 °C,CCOC(=O)C1Cc2ccc(Cl)cc2NC1=O (stereo unspecified)
23,207 °C,Cc1cc(-c2cc(C(F)(F)F)n3ncc(C(=O)Nc4cc(S(=O)(=O)NC(C)(C)CO)sc4Cl)c3n2)ccc1C(F)(F)F
24,240 °C,Cc1cc2c(cc1Br)-c1cc(C)c(Br)c(C)c1OP2(=O)O

row,melting point,Compound
1,216 to 218 °C,Cc1ccc(C=NNc2ccc(S(N)(=O)=O)cc2)cc1
2,142 to 144 °C,Cc1c(C)c2c(c(C)c1O)C(=O)C(C)(C)O2
3,352 to 355 °C,O=c1cc(-c2ccc(OCCOc3ccc(-c4cc(=O)c5c(O)cc(O)cc5o4)cc3)cc2)oc2cc(O)cc(O)c12
4,146 to 148 °C,O=C1CCc2cc(Cl)c(S(=O)(=O)Cl)cc21
5,156 to 158 °C,C=C(C)SC1C(NC(=O)COc2ccccc2)C(=O)N1C=O (stereo unspecified)
6,185 to 188 °C,CC1=C(C(=O)CS(=O)(=O)NC(C)C)C(c2cccc([N+](=O)[O-])c2)C(C(=O)OCCO)=C(C)N1 (stereo unspecified)
7,161 °C,COc1ccc(-c2nc(Sc3ccccc3OC)[nH]c2-c2ccc(OC)cc2)cc1
8,113 to 115 °C,O=C(O)Cc1ccc2ccn(C(=O)c3ccccc3)c2c1
9,127 to 129 °C,O=C1c2ccccc2C(=O)N1CCCC#Cc1ccccn1
10,186 to 187 °C,Cc1oc(-c2ccccc2)nc1COc1ccc(COc2nn(-c3ccccc3)cc2/C=C/C(=O)O)cc1
11,116 °C,Cc1nc(-c2ccc(F)cc2Cl)nn1-c1ccccc1C(F)(F)F
12,76 to 78 °C,Nc1ccc(CCC(=O)c2ccccc2)cc1
13,240 °C,O=C(Nc1ccc(Br)cn1)Nc1cccc2c1C1CC3(CCN1C2=O)SCCS3 (stereo unspecified)
14,185 °C,CC1C(=O)N(c2ccc3c(c2)OCO3)C(=S)N1c1ccc(Oc2ccccc2)cc1 (stereo unspecified)
15,186 to 188 °C,N#Cc1ccc(OCCCCOc2ccc(-c3cc4cc(C#N)ccc4o3)cc2)cc1
16,181 to 183 °C,FC(F)(F)c1cccc2c(-c3ccccc3)c(-c3ccccc3)cnc12
17,65 to 67 °C,CCOC(=O)C(Cc1ccc(C(=O)C(C)(C)C)cc1)(Cc1ccc(C(=O)C(C)(C)C)cc1)C(=O)OCC
18,124 to 130 °C,CC(C)C(OC(=O)NC(C)(Cc1ccccc1)C(=O)NC(CO)c1ccccc1)c1ccccc1 (stereo unspecified)
19,121 to 124 °C,Cn1c(=O)nc(NCCCN2CCN(C(c3ccccc3)c3ccccc3)CC2)c2ccccc21
20,61 to 65 °C,CC(C)(C)c1ccc(-c2cc(-c3cccs3)[nH]n2)cc1
21,137 to 138 °C,O=C(CCCN1CCC2(CC1)OC(c1ccccc1)c1ccccc12)c1ccc(F)cc1 (stereo unspecified)
22,87 to 88 °C,CSc1snc(SCOCC#CI)c1C#N
23,222 to 224 °C,O=C(Nc1ccc2cc(CN3CCCC3)cnc2c1)N1CCC(c2ccccc2)CC1

row,Compound,melting point
1,CN1C(=O)CN=C(c2ccc(O)cc2)c2cc(Cl)ccc21,225 to 259 °C
2,O=C1Nc2ccc(F)nc2N2CCNCC12 (stereo unspecified),305 to 308 °C
3,CSC1=NCC2CN=C(c3ccccc3F)c3cc(Cl)ccc3N12 (stereo unspecified),163 to 165 °C
4,CSc1ccc(CC2C(C)=Cc3cc(F)ccc32)cc1 (stereo unspecified),58 to 59 °C
5,CCCN1C(=O)CC(=O)N(CCC)C1=O,77 to 80 °C
6,COC(=O)[C@]12CN(Cc3ccccc3)C[C@@H]1C(c1ccc(OC)cc1)=CC[C@@]2(C)c1ccccc1 (racemic),132 °C
